Measurements from ChEMBL document CHEMBL4800722, “Data for DCP probe BI 605906” (2021).

Legend:
[1] = molecular target: Adrenergic receptor alpha-2 (Rattus norvegicus) (UniProt P22086+P19328+P22909); experiment: ALPHA2/R Eurofins SafetyScreen44 (BI); assay type: protein assay
[2] = molecular target: ATP-sensitive inward rectifier potassium channel 1 isoform X1 (Mesocricetus auratus) (UniProt A0A1U8CU73); experiment: K+/KATP/HA Eurofins SafetyScreen44 (BI); settings: Cricetinae; Compound concentration 10.0 uM
[3] = molecular target: AMPK alpha2/beta2/gamma1 (Homo sapiens) (UniProt P54646+O43741+P54619); experiment: AMPK (A2/B2/G1) Invitrogen Lab (UK) kinase screen (BI); assay type: protein-complex assay; settings: Compound concentration 1.0 uM
[4] = molecular target: Peripheral plasma membrane protein CASK (Homo sapiens) (UniProt O14936); experiment: CASK Invitrogen Lab (UK) kinase screen (BI); settings: Compound concentration 1.0 uM
[5] = molecular target: Cyclin-dependent kinase-like 5 (Homo sapiens) (UniProt O76039); experiment: CDKL5 Invitrogen Lab (UK) kinase screen (BI); settings: Compound concentration 1.0 uM
[6] = molecular target: Casein kinase I isoform alpha-like (Homo sapiens) (UniProt Q8N752); experiment: CSNK1A1L Invitrogen Lab (UK) kinase screen (BI); settings: Compound concentration 1.0 uM
[7] = molecular target: Dual specificity mitogen-activated protein kinase kinase 4 (Homo sapiens) (UniProt P45985); experiment: MAP2K4 Invitrogen Lab (UK) kinase screen (BI); settings: Compound concentration 1.0 uM
[8] = molecular target: ALK tyrosine kinase receptor (Homo sapiens) (UniProt Q9UM73); experiment: ALK Invitrogen Lab (UK) kinase screen (BI)
[9] = molecular target: Dual specificity protein kinase CLK3 (Homo sapiens) (UniProt P49761); experiment: CLK3 Invitrogen Lab (UK) kinase screen (BI); settings: Compound concentration 1.0 uM
[10] = molecular target: Tyrosine-protein kinase Lck (Homo sapiens) (UniProt P06239); experiment: LCK Invitrogen Lab (UK) kinase screen (BI)
[11] = molecular target: Serine/threonine-protein kinase D1 (Homo sapiens) (UniProt Q15139); experiment: PRKD1 Invitrogen Lab (UK) kinase screen (BI); settings: Compound concentration 1.0 uM
[12] = molecular target: Casein kinase 2 (Homo sapiens) (UniProt P67870+P68400+P19784+Q8NEV1); experiment: CK2 DUNDEE kinase screen (BI); assay type: protein assay; settings: Compound concentration 10.0 uM
[13] = molecular target: Mitogen-activated protein kinase 10 (Homo sapiens) (UniProt P53779); experiment: JNK3 ALPHA 1 DUNDEE kinase screen (BI); settings: Compound concentration 10.0 uM
[14] = molecular target: Protein kinase C alpha type (Homo sapiens) (UniProt P17252); experiment: PKCA DUNDEE kinase screen (BI); settings: Compound concentration 10.0 uM
[15] = molecular target: 5-hydroxytryptamine receptor 5A (Homo sapiens) (UniProt P47898); settings: Compound concentration 10.0 uM
[16] = molecular target: D(3) dopamine receptor (Homo sapiens) (UniProt P35462); settings: Compound concentration 10.0 uM
[17] = molecular target: Sodium-dependent noradrenaline transporter (Homo sapiens) (UniProt P23975); settings: Compound concentration 10.0 uM
[18] = molecular target: Alpha-2B adrenergic receptor (Homo sapiens) (UniProt P18089); settings: Compound concentration 10.0 uM
[19] = molecular target: Histamine H1 receptor (Homo sapiens) (UniProt P35367); settings: Compound concentration 10.0 uM
[20] = molecular target: Leukotriene A-4 hydrolase (Cavia porcellus) (UniProt P19602); settings: Compound concentration 10.0 uM
[21] = molecular target: Serine/threonine-protein kinase/endoribonuclease IRE1 (Homo sapiens) (UniProt O75460); settings: Compound concentration 1.0 uM
[22] = molecular target: Phosphatidylinositol 4-phosphate 5-kinase type-1 gamma (Homo sapiens) (UniProt O60331); settings: Compound concentration 1.0 uM
[23] = molecular target: Serine/threonine-protein kinase 32C (Homo sapiens) (UniProt Q86UX6); settings: Compound concentration 1.0 uM
[24] = molecular target: G protein-coupled receptor kinase 3 (Homo sapiens) (UniProt P35626); settings: Compound concentration 1.0 uM
[25] = molecular target: Calcium/calmodulin-dependent protein kinase type 1 (Homo sapiens) (UniProt Q14012); settings: Compound concentration 1.0 uM
[26] = molecular target: Calcium/calmodulin-dependent protein kinase kinase 1 (Homo sapiens) (UniProt Q8N5S9); settings: Compound concentration 1.0 uM
[27] = molecular target: Cyclin-dependent kinase 1/cyclin B (Homo sapiens) (UniProt P06493+P14635+Q8WWL7+O95067)
[28] = molecular target: Cyclin-dependent kinase 2/cyclin A (Homo sapiens) (UniProt P24941+P20248+P78396); settings: Compound concentration 1.0 uM
[29] = molecular target: Cyclin-dependent kinase 7 (Homo sapiens) (UniProt P50613); settings: Compound concentration 1.0 uM
[30] = molecular target: Dual specificity protein kinase CLK2 (Homo sapiens) (UniProt P49760); settings: Compound concentration 1.0 uM
[31] = molecular target: Casein kinase I isoform gamma-2 (Homo sapiens) (UniProt P78368)
[32] = molecular target: Death-associated protein kinase 1 (Homo sapiens) (UniProt P53355); settings: Compound concentration 1.0 uM
[33] = molecular target: Tyrosine-protein kinase Fes/Fps (Homo sapiens) (UniProt P07332); settings: Compound concentration 1.0 uM
[34] = molecular target: Tyrosine-protein kinase JAK2 (Homo sapiens) (UniProt O60674); settings: Compound concentration 1.0 uM
[35] = molecular target: Mitogen-activated protein kinase kinase kinase 3 (Homo sapiens) (UniProt Q99759); settings: Compound concentration 1.0 uM
[36] = molecular target: Mitogen-activated protein kinase 3 (Homo sapiens) (UniProt P27361); settings: Compound concentration 1.0 uM
[37] = molecular target: MAP kinase-activated protein kinase 3 (Homo sapiens) (UniProt Q16644); settings: Compound concentration 1.0 uM
[38] = molecular target: cGMP-dependent protein kinase 1 (Homo sapiens) (UniProt Q13976); settings: Compound concentration 1.0 uM
[39] = molecular target: Serine/threonine-protein kinase Sgk2 (Homo sapiens) (UniProt Q9HBY8); settings: Compound concentration 1.0 uM
[40] = molecular target: Tyrosine-protein kinase SYK (Homo sapiens) (UniProt P43405)
[41] = molecular target: Tyrosine-protein kinase receptor TYRO3 (Homo sapiens) (UniProt Q06418); settings: Compound concentration 1.0 uM
[42] = molecular target: Wee1-like protein kinase (Homo sapiens) (UniProt P30291); settings: Compound concentration 1.0 uM

Sequence of Casein kinase I isoform gamma-2 (Homo sapiens) (P78368 whole entry, looked up, canonical isoform): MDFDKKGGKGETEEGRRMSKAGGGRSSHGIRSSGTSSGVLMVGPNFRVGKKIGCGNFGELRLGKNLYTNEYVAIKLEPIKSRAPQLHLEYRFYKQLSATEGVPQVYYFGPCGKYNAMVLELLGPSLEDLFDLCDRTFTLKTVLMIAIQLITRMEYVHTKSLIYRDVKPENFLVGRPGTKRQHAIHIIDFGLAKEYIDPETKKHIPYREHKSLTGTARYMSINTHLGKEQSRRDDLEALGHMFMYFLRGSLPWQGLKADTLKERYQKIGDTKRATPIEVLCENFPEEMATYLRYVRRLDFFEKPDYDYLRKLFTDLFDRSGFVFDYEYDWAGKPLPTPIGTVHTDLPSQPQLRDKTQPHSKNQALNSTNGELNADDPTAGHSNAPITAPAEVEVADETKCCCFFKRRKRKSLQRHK
Sequence of ALK tyrosine kinase receptor (Homo sapiens) (Q9UM73 19-1620 limits assumed): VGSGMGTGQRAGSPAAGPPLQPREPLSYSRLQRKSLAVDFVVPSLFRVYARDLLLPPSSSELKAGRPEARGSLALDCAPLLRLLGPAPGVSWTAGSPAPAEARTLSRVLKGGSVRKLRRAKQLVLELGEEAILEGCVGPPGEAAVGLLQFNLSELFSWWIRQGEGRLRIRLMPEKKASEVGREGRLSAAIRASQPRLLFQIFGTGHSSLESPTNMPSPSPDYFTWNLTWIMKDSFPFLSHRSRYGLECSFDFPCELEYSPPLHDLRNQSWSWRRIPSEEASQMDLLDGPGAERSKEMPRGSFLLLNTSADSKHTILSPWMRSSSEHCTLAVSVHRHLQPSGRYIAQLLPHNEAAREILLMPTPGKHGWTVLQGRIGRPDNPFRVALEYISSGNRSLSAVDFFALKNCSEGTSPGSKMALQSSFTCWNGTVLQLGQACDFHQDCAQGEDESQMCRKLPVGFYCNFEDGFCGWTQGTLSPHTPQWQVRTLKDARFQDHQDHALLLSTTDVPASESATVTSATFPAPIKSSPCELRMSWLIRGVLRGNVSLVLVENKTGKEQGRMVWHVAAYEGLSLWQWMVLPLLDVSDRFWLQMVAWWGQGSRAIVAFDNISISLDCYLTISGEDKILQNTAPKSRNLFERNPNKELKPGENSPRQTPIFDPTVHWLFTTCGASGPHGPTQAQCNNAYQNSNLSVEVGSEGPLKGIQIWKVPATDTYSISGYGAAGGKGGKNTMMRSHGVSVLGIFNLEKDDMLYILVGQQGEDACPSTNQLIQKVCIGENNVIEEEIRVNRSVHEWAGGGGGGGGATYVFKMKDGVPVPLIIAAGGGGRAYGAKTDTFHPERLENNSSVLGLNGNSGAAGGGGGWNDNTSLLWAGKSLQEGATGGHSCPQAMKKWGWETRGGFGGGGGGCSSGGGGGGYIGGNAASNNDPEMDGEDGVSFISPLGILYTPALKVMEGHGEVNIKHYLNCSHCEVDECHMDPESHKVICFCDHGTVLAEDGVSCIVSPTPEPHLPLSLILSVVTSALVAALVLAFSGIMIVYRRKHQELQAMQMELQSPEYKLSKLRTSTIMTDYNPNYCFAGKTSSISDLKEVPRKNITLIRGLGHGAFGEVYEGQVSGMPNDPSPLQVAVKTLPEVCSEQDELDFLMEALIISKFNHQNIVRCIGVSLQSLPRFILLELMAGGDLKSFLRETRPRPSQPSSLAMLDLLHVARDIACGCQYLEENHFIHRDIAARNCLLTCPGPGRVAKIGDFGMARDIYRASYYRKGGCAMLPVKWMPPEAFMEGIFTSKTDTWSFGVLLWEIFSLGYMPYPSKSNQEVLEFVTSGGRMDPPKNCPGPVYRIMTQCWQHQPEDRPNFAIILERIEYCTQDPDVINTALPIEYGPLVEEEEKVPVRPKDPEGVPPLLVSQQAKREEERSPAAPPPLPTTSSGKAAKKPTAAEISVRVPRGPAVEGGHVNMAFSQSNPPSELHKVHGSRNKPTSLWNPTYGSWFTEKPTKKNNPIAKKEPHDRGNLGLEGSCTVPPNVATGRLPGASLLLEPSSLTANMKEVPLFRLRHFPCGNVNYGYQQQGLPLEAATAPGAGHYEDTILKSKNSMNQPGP
Sequence of Tyrosine-protein kinase Lck (Homo sapiens) (P06239 2-509 limits assumed): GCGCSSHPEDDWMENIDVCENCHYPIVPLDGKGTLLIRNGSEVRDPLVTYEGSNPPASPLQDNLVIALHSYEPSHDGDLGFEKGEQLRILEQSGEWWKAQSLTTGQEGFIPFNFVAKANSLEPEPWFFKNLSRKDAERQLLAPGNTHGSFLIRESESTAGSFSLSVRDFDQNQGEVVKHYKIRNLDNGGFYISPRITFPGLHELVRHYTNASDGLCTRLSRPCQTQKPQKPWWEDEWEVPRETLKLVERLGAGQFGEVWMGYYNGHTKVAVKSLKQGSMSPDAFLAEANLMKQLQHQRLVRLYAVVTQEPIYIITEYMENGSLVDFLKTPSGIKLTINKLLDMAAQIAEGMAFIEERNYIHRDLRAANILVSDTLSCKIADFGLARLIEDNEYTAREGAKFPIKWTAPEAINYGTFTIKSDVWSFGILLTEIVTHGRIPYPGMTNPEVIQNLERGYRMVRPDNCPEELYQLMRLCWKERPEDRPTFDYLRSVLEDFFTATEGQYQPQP
Sequence of Serine/threonine-protein kinase/endoribonuclease IRE1 (Homo sapiens) (O75460 19-977 limits assumed): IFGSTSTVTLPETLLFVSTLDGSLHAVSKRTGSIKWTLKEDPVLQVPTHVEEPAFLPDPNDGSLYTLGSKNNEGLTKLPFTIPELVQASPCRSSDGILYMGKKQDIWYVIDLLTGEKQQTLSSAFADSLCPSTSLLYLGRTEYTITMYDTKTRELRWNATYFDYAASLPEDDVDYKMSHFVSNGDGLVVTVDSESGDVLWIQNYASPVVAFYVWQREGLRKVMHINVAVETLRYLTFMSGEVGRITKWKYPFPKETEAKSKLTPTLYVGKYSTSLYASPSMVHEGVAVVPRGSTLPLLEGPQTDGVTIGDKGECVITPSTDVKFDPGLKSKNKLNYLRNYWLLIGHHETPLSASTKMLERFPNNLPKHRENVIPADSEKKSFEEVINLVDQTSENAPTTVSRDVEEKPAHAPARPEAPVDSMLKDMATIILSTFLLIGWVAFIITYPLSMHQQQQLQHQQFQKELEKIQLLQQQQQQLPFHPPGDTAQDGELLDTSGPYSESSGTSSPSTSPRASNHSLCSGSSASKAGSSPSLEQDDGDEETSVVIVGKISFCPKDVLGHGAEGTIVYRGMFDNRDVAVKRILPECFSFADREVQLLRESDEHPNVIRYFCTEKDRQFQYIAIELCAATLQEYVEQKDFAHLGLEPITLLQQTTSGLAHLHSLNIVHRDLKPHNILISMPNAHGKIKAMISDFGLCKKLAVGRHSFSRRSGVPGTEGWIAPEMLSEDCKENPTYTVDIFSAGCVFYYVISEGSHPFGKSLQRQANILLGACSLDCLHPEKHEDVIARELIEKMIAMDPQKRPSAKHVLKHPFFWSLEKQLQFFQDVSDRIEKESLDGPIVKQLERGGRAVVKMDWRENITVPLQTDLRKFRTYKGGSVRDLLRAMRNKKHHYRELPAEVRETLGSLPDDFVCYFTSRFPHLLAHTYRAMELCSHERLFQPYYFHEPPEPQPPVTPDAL
Sequence of MAP kinase-activated protein kinase 3 (Homo sapiens) (Q16644 whole entry, looked up): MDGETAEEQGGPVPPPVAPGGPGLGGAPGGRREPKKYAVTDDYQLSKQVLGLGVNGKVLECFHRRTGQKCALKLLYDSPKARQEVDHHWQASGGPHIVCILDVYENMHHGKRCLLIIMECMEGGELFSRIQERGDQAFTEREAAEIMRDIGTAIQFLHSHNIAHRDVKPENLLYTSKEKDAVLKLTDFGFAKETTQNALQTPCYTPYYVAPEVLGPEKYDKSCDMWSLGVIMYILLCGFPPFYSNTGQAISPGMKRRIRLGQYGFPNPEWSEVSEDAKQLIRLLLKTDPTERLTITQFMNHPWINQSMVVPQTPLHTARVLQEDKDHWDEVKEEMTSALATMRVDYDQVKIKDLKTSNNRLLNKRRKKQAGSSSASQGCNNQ
Sequence of Mitogen-activated protein kinase 10 (Homo sapiens) (P53779 whole entry): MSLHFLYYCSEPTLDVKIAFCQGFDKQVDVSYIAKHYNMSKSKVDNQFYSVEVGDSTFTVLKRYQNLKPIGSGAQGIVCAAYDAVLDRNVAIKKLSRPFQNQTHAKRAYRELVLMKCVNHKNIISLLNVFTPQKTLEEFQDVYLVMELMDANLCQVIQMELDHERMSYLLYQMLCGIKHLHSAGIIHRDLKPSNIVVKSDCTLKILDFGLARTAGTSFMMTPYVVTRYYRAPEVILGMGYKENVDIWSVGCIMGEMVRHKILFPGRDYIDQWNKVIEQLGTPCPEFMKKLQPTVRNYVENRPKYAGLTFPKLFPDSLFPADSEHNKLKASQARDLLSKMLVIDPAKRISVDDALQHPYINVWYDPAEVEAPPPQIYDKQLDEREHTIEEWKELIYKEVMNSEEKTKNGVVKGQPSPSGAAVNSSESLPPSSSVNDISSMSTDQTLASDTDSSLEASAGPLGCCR

Q: How did the residual activity ([1]; Compound concentration 10.0 uM) turn out when `CCC(F)(F)c1cc(N2CCC(S(C)(=O)=O)CC2)nc2sc(C(N)=O)c(N)c12` [BI-605906] was run?
A: 103%

Q: And the residual activity ([1]; Compound concentration 100.0 uM)?
A: 102%

Q: What about the residual activity [2] of the same molecule?
A: 110%

Q: And the residual activity [3]?
A: 88%

Q: What about the residual activity [4] of the same molecule?
A: 52%

Q: What about the residual activity [5] of the same molecule?
A: 103%

Q: What about the residual activity [6] of the same molecule?
A: 84%

Q: What about the residual activity [7] of the same molecule?
A: 79%

Q: And the residual activity ([8]; Compound concentration 1.0 uM)?
A: 80%

Q: What about the residual activity ([8]; Compound concentration 10.0 uM) of the same molecule?
A: 74%

Q: What about the residual activity [9] of the same molecule?
A: 102%

Q: What about the residual activity ([10]; Compound concentration 1.0 uM) of the same molecule?
A: 68%

Q: What about the residual activity ([10]; Compound concentration 10.0 uM) of the same molecule?
A: 67%

Q: And the residual activity [11]?
A: 83%

Q: What about the residual activity [12] of the same molecule?
A: 89.4%

Q: And the residual activity [13]?
A: 72.4%

Q: And the residual activity [14]?
A: 66.9%

Q: And the inhibition [15]?
A: 6.16%

Q: And the inhibition [16]?
A: 51.5%

Q: What about the inhibition [17] of the same molecule?
A: 8.84%

Q: What about the inhibition [18] of the same molecule?
A: 9.66%

Q: And the residual activity [19]?
A: 95%

Q: And the residual activity [20]?
A: 93%

Q: What about the residual activity [21] of the same molecule?
A: 82%

Q: What about the residual activity [22] of the same molecule?
A: 96%

Q: And the residual activity [23]?
A: 99%

Q: What about the residual activity [24] of the same molecule?
A: 96%

Q: What about the residual activity [25] of the same molecule?
A: 109%

Q: And the residual activity [26]?
A: 93%

Q: What about the residual activity ([27]; Compound concentration 1.0 uM) of the same molecule?
A: 92%

Q: And the residual activity ([27]; Compound concentration 10.0 uM)?
A: 94%

Q: What about the residual activity [28] of the same molecule?
A: 90%

Q: What about the residual activity [29] of the same molecule?
A: 99%

Q: And the residual activity [30]?
A: 91%

Q: And the residual activity ([31]; Compound concentration 1.0 uM)?
A: 96%

Q: What about the residual activity ([31]; Compound concentration 10.0 uM) of the same molecule?
A: 94%

Q: And the residual activity [32]?
A: 100%

Q: What about the residual activity [33] of the same molecule?
A: 91%

Q: What about the residual activity [34] of the same molecule?
A: 94%

Q: What about the residual activity [35] of the same molecule?
A: 98%

Q: And the residual activity [36]?
A: 100%

Q: What about the residual activity [37] of the same molecule?
A: 93%

Q: What about the residual activity [38] of the same molecule?
A: 97%

Q: What about the residual activity [39] of the same molecule?
A: 99%

Q: What about the residual activity ([40]; Compound concentration 1.0 uM) of the same molecule?
A: 94%

Q: What about the residual activity ([40]; Compound concentration 10.0 uM) of the same molecule?
A: 97%

Q: And the residual activity [41]?
A: 94%

Q: What about the residual activity [42] of the same molecule?
A: 82%
